From ChEMBL document CHEMBL1137029, “Substituted benzylamino-6-(trifluoromethyl)pyrimidin-4(1H)-ones: a novel class of selective human A-FABP inhibitors” (Bioorg Med Chem Lett, 2004)

Biological target: Fatty acid-binding protein, heart (Homo sapiens, UniProt P05413)
Sequence (P05413 whole entry): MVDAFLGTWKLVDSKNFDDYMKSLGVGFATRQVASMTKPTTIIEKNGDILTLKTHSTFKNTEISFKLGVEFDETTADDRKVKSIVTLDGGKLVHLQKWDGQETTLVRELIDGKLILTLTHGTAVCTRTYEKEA

Row | IC50 | Compound
1 | > 100 µM | CN(Cc1ccccc1)c1nc(C(F)(F)F)cc(=O)[nH]1
2 | > 100 µM | Oc1cc(C(F)(F)F)nc(NCc2ccc(Cl)cc2)n1
